Assay results from the NIST ThermoML archive (doi:10.1021/je900444h).

Test: mn = molality of the nth substance listed, in mol/kg
Conditions: 101 kPa, Liquid; for mass density: Vibrating tube method; for viscosity: Capillary tube (Ostwald / Ubbelohde) method

CNC(=O)NC [1,3-dimethylurea] + O
Conditions	mass density [kg/m3]	viscosity [mPa·s]
298.15 K, m1 = 23.15	1068	–
303.15 K, m1 = 0.0033	995.7	0.8242
303.15 K, m1 = 0.0331	995.9	0.8316
303.15 K, m1 = 0.0995	996.4	0.8464
303.15 K, m1 = 0.1669	997	0.8592
303.15 K, m1 = 0.2354	997.5	0.8702
303.15 K, m1 = 0.3039	998.1	0.8753
303.15 K, m1 = 0.3387	998.3	0.887
303.15 K, m1 = 0.4997	999.6	–
303.15 K, m1 = 0.7491	1001.6	0.9652
303.15 K, m1 = 1.001	1003.6	–
303.15 K, m1 = 1.08	1004.2	–
303.15 K, m1 = 1.5	1007.4	–
303.15 K, m1 = 1.923	1010.5	1.216
303.15 K, m1 = 2.885	1017.1	1.44
303.15 K, m1 = 4.005	1023.8	1.729
303.15 K, m1 = 5.304	1030.6	2.055
303.15 K, m1 = 6.862	1037.4	2.49
303.15 K, m1 = 8.726	1043.8	3.002
303.15 K, m1 = 11.02	1049.8	3.603
303.15 K, m1 = 15.65	1057.8	4.927
303.15 K, m1 = 23.15	1064	7.122
308.15 K, m1 = 0.4997	997.9	–
308.15 K, m1 = 0.7491	999.8	0.8666
308.15 K, m1 = 1.001	1001.7	–
308.15 K, m1 = 1.08	1002.3	–
308.15 K, m1 = 1.5	1005.4	–
308.15 K, m1 = 1.923	1008.4	1.079
308.15 K, m1 = 2.885	1014.8	1.271
308.15 K, m1 = 4.005	1021.3	1.511
308.15 K, m1 = 5.304	1027.8	1.778
308.15 K, m1 = 6.862	1034.3	2.135
308.15 K, m1 = 8.726	1040.5	2.545
308.15 K, m1 = 11.02	1046.3	3.056
308.15 K, m1 = 15.65	1054	4.116
308.15 K, m1 = 23.15	1060.1	5.865
313.15 K, m1 = 0.4997	996	–
313.15 K, m1 = 0.7491	997.9	0.7797
313.15 K, m1 = 1.001	999.7	–
313.15 K, m1 = 1.08	1000.3	–
313.15 K, m1 = 1.5	1003.3	–
313.15 K, m1 = 1.923	1006.1	0.9649
313.15 K, m1 = 2.885	1012.3	1.127
313.15 K, m1 = 4.005	1018.6	1.336
313.15 K, m1 = 5.304	1024.9	1.56
313.15 K, m1 = 6.862	1031.1	1.859
313.15 K, m1 = 8.726	1037.1	2.195
313.15 K, m1 = 11.02	1042.8	2.626
313.15 K, m1 = 15.65	1050.2	3.513
313.15 K, m1 = 23.15	1056.1	4.918
318.15 K, m1 = 5.304	1021.8	1.38
318.15 K, m1 = 6.862	1027.8	1.632
318.15 K, m1 = 8.726	1033.6	1.906
318.15 K, m1 = 11.02	1039.1	2.268
318.15 K, m1 = 15.65	1046.3	3.024
318.15 K, m1 = 23.15	1052.1	4.196
323.15 K, m1 = 5.304	1018.6	1.222
323.15 K, m1 = 6.862	1024.5	1.44
323.15 K, m1 = 8.726	1030.1	1.681
323.15 K, m1 = 11.02	1035.4	1.983
323.15 K, m1 = 15.65	1042.4	2.646
323.15 K, m1 = 23.15	1048	3.658
328.15 K, m1 = 5.304	1015.9	1.095
328.15 K, m1 = 6.862	1021	1.293
328.15 K, m1 = 8.726	1026.5	1.492
328.15 K, m1 = 11.02	1031.6	1.76
328.15 K, m1 = 15.65	1038.4	2.333
328.15 K, m1 = 23.15	1043.9	3.212
333.15 K, m1 = 5.304	1012.3	1.024
333.15 K, m1 = 6.862	1017.5	1.164
333.15 K, m1 = 8.726	1022.7	1.343
333.15 K, m1 = 11.02	1027.8	1.564
333.15 K, m1 = 15.65	1034.4	2.061
333.15 K, m1 = 23.15	1039.8	2.818
